Laboratory results reported in patent US20240000756A1, “METHODS AND COMPOUNDS FOR TREATMENT OF AUTISM SPECTRUM DISORDER” (Crestone, Inc., priority 2020, published 2024).
In brackets after ≈: the same amount, converted by molar mass. Like-named read-outs stand apart in the source and are kept apart here.

Experiments:
[1] = Single ascending dose Phase 1a study, safety and pharmacokinetics in healthy adults
C. perfringens = C. perfringens clinical isolates, agar dilution; cited from earlier work
[2] = Multiple ascending dose Phase 1b study, safety and pharmacokinetics in healthy adults; assay type: in vivo, human; settings: for half-life / Tmax: both sexes, human, plasma, oral
Experimental: The study was performed at Quintiles Phase I Services in Overland Park, KS. […] The secondary objective was to determine the plasma pharmacokinetic characteristics of CRS3123 after multiple oral doses. An exploratory endpoint was the evaluation of the effect of CRS3123 on fecal microbiome.

C. difficile [3] = settings: cited from earlier work
C. difficile [4] = settings: C. difficile clinical isolates, agar dilution; cited from earlier work
[5] = single dose, all TEAEs, combined
[6] = single dose, related to CRS3123 treatment, combined

## O=c1cc(NCCCN[C@@H]2CCOc3c(Br)cc(Br)cc32)[nH]c2ccsc12 [CRS3123]
[1]; single dose
  deaths, SAEs, severe or life-threatening TEAEs: no deaths, SAEs, or severe or life-threatening TEAEs
  moderate TEAEs: 7.4%
[1]; single dose study
  overall safety and tolerability: safe and well-tolerated
[1]; single dose, CRS3123-treated subjects combined
  subjects reporting treatment-emergent adverse events (TEAEs): 93.3%
[1]; [5]
  TEAE frequency: abnormal urine analysis: 20.0%
  TEAE frequency: decreased hemoglobin: 23.3%
  TEAE frequency: headache: 20.0%
  TEAE frequency: positive urine leukocyte esterase: 16.7%
[1]; [6]
  treatment-related TEAE: abnormal urine analysis: 16.7%
  treatment-related TEAE: decreased blood calcium: 13.3%
  treatment-related TEAE: decreased hemoglobin: 16.7%
  treatment-related TEAE: headache: 20.0%
[1]; single oral dose 100-1200 mg
  dose proportionality of systemic exposure: did not appear to be dose-proportional
[1]; single oral dose 100-1200 mg, healthy fasted subjects
  fraction absorbed: low but detectable fraction
[1]; single oral dose, mass spectral analysis
  metabolism: metabolized in the body via glucuronidation
C. perfringens
  MIC90: 0.25 µg/mL (≈ 0.487 µM)
[2]; 200-600 mg BID
  dose proportionality of exposure (Cmax, AUC0-12 Day 1; Cmax,ss, AUC0-τ Day 10): less than proportional to the increase in dose
[2]; following a single dose, across 3 dose groups, read-out: geometric mean t1/2
  half-life: 3.01 to 3.53 h
[2]; following 10 days of twice daily administration, across 3 dose groups, read-out: geometric mean t1/2,ss
  half-life: 4.71 to 6.32 h
[2]; following 10 days of twice daily administration, across 3 dose groups, read-out: median Tmax,ss
  Tmax: 1 to 2 h
[2]; following a single dose, across 3 dose groups (200, 400, 600 mg), read-out: median Tmax
  Tmax: 2 to 3 h
[2]; multiple ascending dose
  QTcF interval: no prolongation
[2]; multiple ascending dose, 200-600 mg BID, 10 days
  overall safety and tolerability: generally safe and well tolerated
[2]; multiple twice daily dosing for 10 days
  accumulation: minimal accumulation
[2]; single and multiple dose
  fate of unchanged drug: retained in the GI tract and excreted in feces
C. difficile [3]
  activity in hamster model of C. difficile infection: active
C. difficile [4]
  MIC90: 1.0 µg/mL (≈ 1.95 µM)
